{"source": "patent US20250312433A1", "about": "“Process for Producing of Vaccine Formulations With Preservatives” (priority 2022, published 2025)", "key": {"[1]": {"test": "2-PE concentration / solubility in Succinate Buffered Saline by RP-HPLC", "format": "physicochemical", "settings": "for Measured 2-PE concentration: RP-HPLC", "protocol": "(§1) The objective of this study was to evaluate the dissolution time and solubility of 2-phenoxyethanol (2-PE). 2-PE dissolution and concentration were evaluated at the following concentrations in Succinate Buffered Saline (SBS) (5 mM succinate, 150 mM NaCl, pH 5.8); 11 g/L, 16.5 g/L, and 20 g/L.\n(§2) Appropriate amount of 2-PE was weighed out in 400 ml beaker and appropriate amount of succinate buffered saline was added. Agitation speed was 300 rpm and solution temperature about 20° C. The time for complete dissolution based on visual observation was recorded. 2-PE concentration was measured by RP-HPLC."}, "[2]": {"test": "Dissolution time of 2-PE in Succinate Buffered Saline (visual observation)", "format": "physicochemical", "settings": "300 rpm, about 20° C.; for 2-PE bulk dissolution Time: all dissolved besides up to approximately 5 small particles", "protocol": "as §1, §2"}}, "data": [{"smiles": "OCCOc1ccccc1", "note": "[2-PE, 2-phenoxyethanol]", "values": [{"measurement": "measured 2-PE concentration below the target concentration", "setting": "[1]; all concentrations (11, 16.5, 20 mg/mL) in SBS", "value": "approximately 5%"}, {"measurement": "solubility", "setting": "[1]; aqueous buffer, thermodynamic from solid, succinate-buffered saline (pH 5.8) at 20° C.", "value": "≥ 19.1", "unit": "mg/mL"}, {"measurement": "Percent Difference (measured − target)/target × 100", "setting": "[1]; target 11.0 mg/mL in SBS", "value": "−4.5", "unit": "%"}, {"measurement": "Measured 2-PE concentration", "setting": "[1]; target 11.0 mg/mL in SBS", "value": 10.5, "unit": "mg/mL"}, {"measurement": "Percent Difference (measured − target)/target × 100", "setting": "[1]; target 16.5 mg/mL in SBS", "value": "−5.5", "unit": "%"}, {"measurement": "Measured 2-PE concentration", "setting": "[1]; target 16.5 mg/mL in SBS", "value": 15.6, "unit": "mg/mL"}, {"measurement": "Percent Difference (measured − target)/target × 100", "setting": "[1]; target 20.0 mg/mL in SBS", "value": "−4.5", "unit": "%"}, {"measurement": "Measured 2-PE concentration", "setting": "[1]; target 20.0 mg/mL in SBS", "value": 19.1, "unit": "mg/mL"}, {"measurement": "2-PE bulk dissolution Time", "setting": "[2]; 11 mg/mL 2-PE in SBS (5 mM succinate, 150 mM NaCl, pH 5.8)", "value": 7, "unit": "min"}, {"measurement": "2-PE bulk dissolution Time", "setting": "[2]; 16.5 mg/mL 2-PE in SBS", "value": 9, "unit": "min"}, {"measurement": "2-PE bulk dissolution Time", "setting": "[2]; 20 mg/mL 2-PE in SBS", "value": 15, "unit": "min"}, {"measurement": "2-PE complete dissolution time", "setting": "[2]; 20 mg/mL 2-PE in SBS, all small particles dissolved", "value": 35, "unit": "min"}]}]}
